US20060223996A1, “IL-12 modulatory compounds” (Synta Pharmaceuticals Corp., priority 2004, published 2006)
pIC50: −log10 of the molar value.

System: IL-12
Assay: Human in vitro assay: inhibition of IL-12 production in IFNγ/LPS- or IFNγ/SAC-stimulated human PBMC or THP-1 cells (ELISA)
Assay type: cell-based
Conditions: read-out: IC50 Range (representative in vitro IC50 data)
Outline: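 Sandwich ELISA for IL-12 (p70, p40) on supernatants collected 18 h after stimulation gave IC50 values; MTS monitored viability. THP-1 cells: IFNγ 100 U/mL priming 22 h, SAC 0.025%. PBMC: IFNγ 30 U/mL for 22 h plus LPS 1 μg/mL, or IFNγ 100 U/mL plus SAC 0.01%. Final DMSO 0.25%.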

Row | Compound | pIC50
1 | COCCN(C)c1cc(C(=O)Nc2nnc(C(C)(C)C)s2)nc(N2CCOCC2)n1 [Compound 236, 6-[(2-Methoxy-ethyl)-methyl-amino]-2-morpholin-4-yl-pyrimidine-4-carboxylic acid (5-tert-butyl-[1,3,4]thiadiazol-2-yl)-amide] | ≤ 6.00
2 | CC(=O)Nc1ccccc1NC(=O)c1cc(OCCN2CCOCC2)nc(N2CCOCC2)n1 [Compound 49, 2-Morpholin-4-yl-6-(2-morpholin-4-yl-ethoxy)-pyrimidine-4-carboxylic acid (2-acetylamino-phenyl)-amide] | ≤ 6.00
3 | CN1CCCc2cc(NC(=O)c3cc(OCCN4CCOCC4)nc(N4CCOCC4)n3)ccc21 [Compound 318, 2-Morpholin-4-yl-6-(2-morpholin-4-yl-ethoxy)-pyrimidine-4-carboxylic acid (1-methyl-1,2,3,4-tetrahydro-quinolin-6-yl)-amide] | ≤ 6.00
4 | COCCN(C)c1cc(C(=O)Nc2ccc(C(C)C)c(C)c2)nc(N2CCOCC2)n1 [Compound 229, 6-[(2-Methoxy-ethyl)-methyl-amino]-2-morpholin-4-yl-pyrimidine-4-carboxylic acid (4-isopropyl-3-methyl-phenyl)-amide] | ≤ 6.00
5 | Cn1c(=O)sc2cc(NC(=O)Nc3cc(OCCN4CCOCC4)nc(N4CCOCC4)n3)ccc21 [Compound 133, 1-(3-Methyl-2-oxo-2,3-dihydro-benzothiazol-6-yl)-3-[2-morpholin-4-yl-6-(2-morpholin-4-yl-ethoxy)-pyrimidin-4-yl]-urea] | ≤ 6.00
6 | COCCN(C)c1cc(C(=O)Nc2cc(C)ns2)nc(N2CCOCC2)n1 [Compound 239, 6-[(2-Methoxy-ethyl)-methyl-amino]-2-morpholin-4-yl-pyrimidine-4-carboxylic acid (3-methyl-isothiazol-5-yl)-amide] | ≤ 6.00
7 | O=C(Nc1ccc2c(c1)CCC2)Nc1cc(N2CCOCC2)nc(OCCN2CCOCC2)n1 [Compound 120, 1-Indan-5-yl-3-[6-morpholin-4-yl-2-(2-morpholin-4-yl-ethoxy)-pyrimidin-4-yl]-urea] | ≤ 6.00
8 | Cn1c(=O)oc2cc(NC(=O)Nc3cc(OCCN4CCOCC4)nc(N4CCOCC4)n3)ccc21 [Compound 134, 1-(3-Methyl-2-oxo-2,3-dihydro-benzooxazol-6-yl)-3-[2-morpholin-4-yl-6-(2-morpholin-4-yl-ethoxy)-pyrimidin-4-yl]-urea] | ≤ 6.00
9 | O=C(Nc1cc(OCCN2CCOCC2)nc(N2CCOCC2)n1)Nc1cccc2c(O)cccc12 [Compound 138, 1-(5-Hydroxy-naphthalen-1-yl)-3-[2-morpholin-4-yl-6-(2-morpholin-4-yl-ethoxy)-pyrimidin-4-yl]-urea] | ≤ 6.00
10 | CONc1cc(C(=O)Nc2cccc(N(C)C)c2)nc(N2CCOCC2)c1 [Compound 160, 4-Methoxyamino-6-morpholin-4-yl-pyridine-2-carboxylic acid (3-dimethylamino-phenyl)-amide] | > 6.00
11 | CCOc1cc(N2CCOCC2)c(OCC)cc1NC(=O)c1cc(N(C)CCOC)nc(N2CCOCC2)n1 [Compound 204, N-(2,5-diethoxy-4-morpholinophenyl)-6-((2-methoxyethyl)(methyl)amino)-2-morpholinopyrimidine-4-carboxamide] | ≤ 6.00
12 | COCCN(C)c1cc(C(=O)Nc2ccc3c(c2)OCCO3)nc(N2CCOCC2)n1 [Compound 200, N-(2,3-dihydrobenzo[b][1,4]dioxin-6-yl)-6-((2-methoxyethyl)(methyl)amino)-2-morpholinopyrimidine-4-carboxamide] | ≤ 6.00
13 | Cc1cccc(NNC(=O)c2cc(OCCN3CCOCC3)nc(N3CCOCC3)c2)c1 [Compound 82, 2-Morpholin-4-yl-6-(2-morpholin-4-yl-ethoxy)-isonicotinic acid N′-m-tolyl-hydrazide] | ≤ 6.00
14 | O=C(Nc1cccc(F)c1)Nc1cc(OCCN2CCOCC2)nc(N2CCOCC2)n1 [Compound 125, 1-(3-Fluoro-phenyl)-3-[2-morpholin-4-yl-6-(2-morpholin-4-yl-ethoxy)-pyrimidin-4-yl]-urea] | > 6.00
15 | Cc1[nH]c2ccc(NC(=O)c3cc(N4CCC5(CC4)OCCO5)nc(N4CCOCC4)n3)cc2c1C [Compound 172, 6-(1,4-Dioxa-8-aza-spiro[4.5]dec-8-yl)-2-morpholin-4-yl-pyrimidine-4-carboxylic acid (2,3-dimethyl-1H-indol-5-yl)-amide] | > 6.00
16 | O=C(Nc1cc(N2CCOCC2)nc(OCCc2ccccn2)n1)c1ccc2[nH]ccc2c1 [Compound 74, 1H-Indole-5-carboxylic acid [6-morpholin-4-yl-2-(2-pyridin-2-yl-ethoxy)-pyrimidin-4-yl]-amide] | ≤ 6.00
17 | COCCN(C)c1cc(C(=O)Nc2cccc(N(C)C)c2)nc(N2CCOCC2)n1 [Compound 302, 6-[(2-Methoxy-ethyl)-methyl-amino]-2-morpholin-4-yl-pyrimidine-4-carboxylic acid (3-dimethylamino-phenyl)-amide] | > 6.00
18 | COCCN(C)c1cc(C(=O)Nc2ccc3nc(C)c(C)nc3c2)nc(N2CCOCC2)n1 [Compound 241, 6-[(2-Methoxy-ethyl)-methyl-amino]-2-morpholin-4-yl-pyrimidine-4-carboxylic acid (2,3-dimethyl-quinoxalin-6-yl)-amide] | ≤ 6.00
19 | Cc1[nH]c2ccc(NC(=O)c3cc(N4CCN(CCO)CC4)nc(N4CCOCC4)n3)cc2c1C [Compound 94, 6-[4-(2-Hydroxy-ethyl)-piperazin-1-yl]-2-morpholin-4-yl-pyrimidine-4-carboxylic acid (2,3-dimethyl-1H-indol-5-yl)-amide] | > 6.00

Second part, the molecule after the results:

Row | pIC50 | Compound
20 | > 6.00 | CCCCN(CCCC)c1cc(C(=O)Nc2ccc3[nH]c(C)c(C)c3c2)nc(N2CCOCC2)n1 [Compound 92, 6-Dibutylamino-2-morpholin-4-yl-pyrimidine-4-carboxylic acid (2,3-dimethyl-1H-indol-5-yl)-amide]
21 | > 6.00 | CONc1cc(C(=O)Nc2ccc3[nH]c(C)c(C)c3c2)nc(N2CCOCC2)c1 [Compound 161, 4-Methoxyamino-6-morpholin-4-yl-pyridine-2-carboxylic acid (2,3-dimethyl-1H-indol-5-yl)-amide]
22 | > 6.00 | O=C(Nc1ccc2[nH]c3c(c2c1)CCCC3)c1cc(OCCc2cccc[n+]2[O-])nc(N2CCOCC2)n1 [Compound 322, 2-Morpholin-4-yl-6-[2-(1-oxy-pyridin-2-yl)-ethoxy]-pyrimidine-4-carboxylic acid (6,7,8,9-tetrahydro-5H-carbazol-3-yl)-amide]
23 | > 6.00 | CCc1c[nH]c2ccc(NC(=O)c3cc(N4CCN(C(C)=O)CC4)cc(N4CCOCC4)n3)cc12 [Compound 181, 4-(4-Acetyl-piperazin-1-yl)-6-morpholin-4-yl-pyridine-2-carboxylic acid (3-ethyl-1H-indol-5-yl)-amide]
24 | > 6.00 | CNc1cc(C(=O)Nc2ccc3[nH]c(C)c(C)c3c2)nc(N2CCOCC2)n1 [Compound 247, N-(2,3-dimethyl-1H-indol-5-yl)-6-(methylamino)-2-morpholino-pyrimidine-4-carboxamide]
25 | > 6.00 | O=C(Nc1ccc(O)cc1)Nc1cc(OCCN2CCOCC2)nc(N2CCOCC2)n1 [Compound 143, 1-(4-Hydroxy-phenyl)-3-[2-morpholin-4-yl-6-(2-morpholin-4-yl-ethoxy)-pyrimidin-4-yl]-urea]
26 | > 6.00 | CC(=O)N1CCN(c2cc(C(=O)Nc3ccc4[nH]c(C)c(C)c4c3)nc(N3CCOCC3)c2)CC1 [Compound 169, 4-(4-Acetyl-piperazin-1-yl)-6-morpholin-4-yl-pyridine-2-carboxylic acid (2,3-dimethyl-1H-indol-5-yl)-amide]
27 | > 6.00 | Cc1[nH]c2ccc(NC(=O)c3cc(N(C)C)nc(N4CCOCC4)n3)cc2c1C [Compound 248, N-(2,3-dimethyl-1H-indol-5-yl)-6-(dimethylamino)-2-morpholino-pyrimidine-4-carboxamide]
28 | > 6.00 | N#Cc1cccc(NC(=O)Nc2cc(OCCN3CCOCC3)nc(N3CCOCC3)n2)c1 [Compound 127, 1-(3-Cyano-phenyl)-3-[2-morpholin-4-yl-6-(2-morpholin-4-yl-ethoxy)-pyrimidin-4-yl]-urea]
29 | > 6.00 | CCc1c(C)[nH]c2ccc(NC(=O)Nc3cc(NCCN4CCOCC4)nc(N4CCOCC4)n3)cc12 [Compound 270, 1-(3-ethyl-2-methyl-1H-indol-5-yl)-3-(2-morpholino-6-(2-morpholinoethylamino)pyrimidin-4-yl)urea]
30 | > 6.00 | CCn1ccc2ccc(NC(=O)c3cc(OCCN4CCOCC4)nc(N4CCOCC4)n3)cc21 [Compound 220, N-(1-ethyl-1H-indol-6-yl)-2-morpholino-6-(2-morpholinoethoxy)pyrimidine-4-carboxamide]
31 | > 6.00 | Cc1[nH]c2ccc(NC(=O)c3cc(OCCN4CCNCC4)nc(N4CCOCC4)n3)cc2c1C [Compound 246, N-(2,3-dimethyl-1H-indol-5-yl)-2-morpholino-6-(2-(piperazin-1-yl)ethoxy)pyrimidine-4-carboxamide]
32 | > 6.00 | Cc1cccc(NC(=O)c2cc(OCCc3ccccn3)nc(N3CCOCC3)n2)c1 [Compound 5, 2-Morpholin-4-yl-6-(2-pyridin-2-yl-ethoxy)-pyrimidine-4-carboxylic acid m-tolylamide]
33 | > 6.00 | Cc1[nH]c2ccc(NC(=O)c3cc(N4CCOCC4)nc(N4C[C@@H](C)O[C@@H](C)C4)n3)cc2c1C [Compound 281, 2-(2,6-Dimethyl-morpholin-4-yl)-6-morpholin-4-yl-pyrimidine-4-carboxylic acid (2,3-dimethyl-1H-indol-5-yl)-amide]
34 | > 6.00 | O=C(Nc1cccc(-n2cccn2)c1)c1cc(OCCN2CCOCC2)nc(N2CCOCC2)n1 [Compound 313, 2-Morpholin-4-yl-6-(2-morpholin-4-yl-ethoxy)-pyrimidine-4-carboxylic acid (3-pyrazol-1-yl-phenyl)-amide]
35 | > 6.00 | O=C(Nc1cccc(N2CCOCC2)c1)c1cc(OCCN2CCOCC2)nc(N2CCOCC2)n1 [Compound 295, 2-Morpholin-4-yl-6-(2-morpholin-4-yl-ethoxy)-pyrimidine-4-carboxylic acid (3-morpholin-4-yl-phenyl)-amide]
